According to patent US4774345A, “Amine-complexed zinc salts of organic diacids” (Engelhard Corporation, priority 1986, dated 1988):
“Also recorded” adds a separate entry of the source. Like-named read-outs stand apart in the source and are kept apart here.

Key:
[1] = Electrochemical testing (Tafel Plot), corrosion current, corrosion potential and pH of simulated acid rain saturated with pigment
[2] = Salt spray exposure, Example VI (ASTM B117-73; alkyd and latex primers); conditions: for Salt spray durability, in words: FIG. 3, alkyd formulation
[3] = Draize eye irritation; format: in vivo; conditions: 100 mg
[4] = Primary skin irritation; format: in vivo; conditions: 0.5 g in Saline Paste
[5] = Salt spray exposure, Example V (alkyd and latex primers)
[6] = Acute oral toxicity; format: in vivo
[7] = water
[8] = in vivo; cited from earlier work
[9] = Table III, simulated acid rain electrolyte pH about 4.2, saturated with pigment

Molecule: NCCN.O=C([O-])CCCCC(=O)[O-].[Zn+2] [Compound 3, Zinc Adipate Ethylenediamine]
- Corrosion Curr. (Icorr) [1, 9]: 78 microamps
- Salt spray durability, in words [2]: superior to "Zinc Yellow" (zinc chromate) in salt spray durability
- Eye Irritation, rating in words [3]: moderately-irritating
- Skin Irritation, rating in words [4]: minimally irritating

Molecule: CC(N)CN.O=C([O-])CCCCC(=O)[O-].[Zn+2] [Compound 4, Zinc Adipate Propylenediamine]
- Salt spray durability, in words [2]: superior to "Zinc Yellow" (zinc chromate) in salt spray durability

Molecule: NCCN.O=C([O-])CCCCCCCC(=O)[O-].[Zn+2] [Compound 5, Zinc Azelate Ethylenediamine]
- pH ([1]; Table III): 6.78
- Corrosion Pot. (Ecorr) ([1]; Table III, against saturated calomel electrode): -667 millivolts
- Corrosion Curr. (Icorr) [1, 9]: 82 microamps
- Effect of kaolin on salt spray performance ([5]; distended on kaolin): anomolously reduced the performance

Molecule: NCCN.O=C([O-])CCCCCCCCC(=O)[O-].[Zn+2] [Compound 6, Zinc Sebacate Ethylenediamine]
- Corrosion Curr. (Icorr) [1]: 170 microamps
- Corrosion Pot. (Ecorr) [1]: -462 millivolts
- pH [1]: 6.8
- Eye Irritation, rating in words [3]: severely irritating
- Skin Irritation, rating in words [4]: minimally irritating

Molecule: O=C([O-])CCCCCCCCCCC(=O)[O-].OCCN(CCO)CCO.[Zn+2] [Compound 10, Zinc Dibasate Triethanolamine]
- Corrosion Curr. (Icorr) [1]: 93 microamps
- Corrosion Pot. (Ecorr) [1]: -580 millivolts
- pH [1]: 7.2

Molecule: NCCN.O=C([O-])CCCCCCCCCCC(=O)[O-].[Zn+2] [Compound 11, Zinc Dodecanedioate Ethylenediamine]
- Corrosion Curr. (Icorr) [1, 9]: 130 microamps
- Salt spray durability, in words [2]: superior to "Zinc Yellow" (zinc chromate) in salt spray durability

Molecule: CCNCC.O=C([O-])CCCCCCCCCCC(=O)[O-].[Zn+2] [Compound 12, Zinc Dodecanedioate Diethylamine]
- Corrosion Curr. (Icorr) [1]: 197 microamps

Molecule: NCCN.O=C([O-])c1ccccc1C(=O)[O-].[Zn+2] [Compound 17, Zinc Phthalate Ethylenediamine]
- Corrosion Curr. (Icorr) [1]: 83 microamps
- Skin Irritation, rating in words [4]: non-irritating

Molecule: NCCN.O=C([O-])c1cccc(C(=O)[O-])c1.[Zn+2] [Compound 18, Zinc Isophthalate Ethylenediamine]
- Salt spray durability, in words [2]: superior to "Zinc Yellow" (zinc chromate) in salt spray durability

Molecule: Zinc Dibasate Diethylamine [Compound 9]
- Acute oral toxicity, mortality ([6]; Oral (5 g/kg in Corn Oil)): 0%
- Corrosion Pot. (Ecorr) [1]: -570 millivolts
- pH [1]: 7.0
- Eye Irritation, rating in words [3]: mildly irritating

Molecule: Zinc Dibasate Dimethylamine [Compound 21]
- Corrosion Curr. (Icorr) [1]: 82 microamps
- Corrosion Pot. (Ecorr) [1]: -610 millivolts

Molecule: Zinc Dibasate Piperidine [Compound 24]
- Corrosion Curr. (Icorr) [1]: 40 microamps
- Corrosion Pot. (Ecorr) [1]: -610 millivolts

Molecule: Zinc Dibasate Propylenediamine [Compound 8]
- Solubility Description [7]: SS (key: PINS: practically insoluble (<.1 g/100 cc H2 O); SS: slightly soluble (.1 to 1 g/100 cc H2 O); MS: moderately soluble)

Molecule: Zinc Sulfonyldiphenolate Ethylenediamine [Compound 15]
- Corrosion Curr. (Icorr) [1]: 170 microamps
- Corrosion Pot. (Ecorr) [1]: -592 millivolts
- pH [1]: 7.67
- Eye Irritation, rating in words [3]: severely irritating
- Skin Irritation, rating in words [4]: non-irritating

Molecule: Zinc Thiodiphenolate Ethylenediamine [Compound 14]
- Toxicity characteristics (overall statement) ([6]; acute oral, skin and eye tests of Table VIII): unacceptable toxicity characteristics
- Corrosion Curr. (Icorr) [1]: 52.5 microamps
- Corrosion Pot. (Ecorr) [1]: -570 millivolts
- pH [1]: 8.60
- Paint panel durability in salt spray, in words [2]: slightly less than half the durability achieved by the commercial "Zinc Yellow" (zinc chromate) corrosion-inhibitor formulation; also recorded: performed markedly better than commercially available corrosion inhibitors, such as Nalzin, Halox, Busan, "Moly White" and zinc phosphate
- Eye Irritation, rating in words [3]: extremely irritating
- Effect of kaolin on salt spray performance [5]: kaolin likewise enhanced the performance
- Hours to failure in salt spray (performance level) [5]: approximately 780 hours

Molecule: Zinc Thiodiphenolate Propylenediamine [Compound 20]
- Corrosion Curr. (Icorr) [1]: 46 microamps
- Corrosion Pot. (Ecorr) [1]: -560 millivolts
- pH [1]: 8.18

Molecule: zinc chromate
- TDLo [8]: 12 mg/kg
